Results reported in a compilation of properties of binary mixtures (doi:10.1016/j.jct.2022.106909).

Test: xn = mol fraction of the nth substance listed
Conditions: 100 kPa

CC(=O)[O-].Cn1cc[n+](CCO)c1 + O
viscosity [mPa·s]
Conditions | 288.15 K | 293.15 K | 298.15 K | 303.15 K | 308.15 K | 313.15 K | 318.15 K | 323.15 K | 328.15 K | 333.15 K
x1 = 0.8317 | 73.1 | 54.2 | – | – | – | 20.52 | 16.8 | 13.96 | 11.73 | 9.95
x1 = 0.8632 | 95.7 | 71.8 | 53.8 | 41.9 | 32.2 | – | 20.74 | 17.07 | 14.25 | 12.06
x1 = 0.8712 | 102.6 | 74.7 | – | – | 33.3 | – | 21.56 | 17.7 | – | 12.4
x1 = 0.8818 | 112.8 | 83.4 | 62 | 47.1 | – | – | 23.58 | – | 16.02 | –
x1 = 0.9003 | 127.4 | – | 69.5 | 52.7 | 40.8 | 32.2 | 25.9 | 21.33 | 17.64 | –

CCC(=O)[O-].C[n+]1ccn(CCO)c1 + O
viscosity [mPa·s]
Conditions | 288.15 K | 293.15 K | 298.15 K | 303.15 K | 308.15 K | 313.15 K | 318.15 K | 323.15 K | 328.15 K | 333.15 K
x1 = 0.7595 | 173 | 126 | – | 70.4 | 57.5 | 45.1 | 36.6 | 30.3 | 25.1 | 21.1
x1 = 0.8082 | 194 | 145 | 108.2 | 80.5 | 65.2 | 48.5 | 38.9 | – | – | 22.2
x1 = 0.842 | 217 | 157 | – | 88.5 | 68.6 | 50.9 | – | 33.2 | 28.2 | 22.7
x1 = 0.8991 | 243 | 178 | 132 | 101.3 | – | 54 | 42.9 | – | 30.2 | –
x1 = 0.9102 | 248 | 184 | 136 | 103.7 | 78.5 | 54.9 | 43.6 | 35.1 | – | 23.9
